Test results: patent US20180104361A1, “DYE MOLECULE AND DYE PREPARATIONS, IN PARTICULAR FOR USE IN SURGICAL METHODS OF OPHTHALMIC SURGERY AND FOR DYEING PROTEINS” (AL.CHI.MI.A. S.R.L., priority 2015, published 2018)

What was measured:
[1] = equal to 0.03% w/v; DIN EN ISO 10993; cited from earlier work
[2] = target: T1, egg white albumin (Gallus gallus, UniProt P01012); assay: Affinity test by circular dichroism (CD) titration with albumin; type: binding; details: dye preparation in Ficoll 4% in a phosphate buffer (sterilised)
T1 construct: from tissue; host or cells: egg white
T1 sequence (P01012 1-386): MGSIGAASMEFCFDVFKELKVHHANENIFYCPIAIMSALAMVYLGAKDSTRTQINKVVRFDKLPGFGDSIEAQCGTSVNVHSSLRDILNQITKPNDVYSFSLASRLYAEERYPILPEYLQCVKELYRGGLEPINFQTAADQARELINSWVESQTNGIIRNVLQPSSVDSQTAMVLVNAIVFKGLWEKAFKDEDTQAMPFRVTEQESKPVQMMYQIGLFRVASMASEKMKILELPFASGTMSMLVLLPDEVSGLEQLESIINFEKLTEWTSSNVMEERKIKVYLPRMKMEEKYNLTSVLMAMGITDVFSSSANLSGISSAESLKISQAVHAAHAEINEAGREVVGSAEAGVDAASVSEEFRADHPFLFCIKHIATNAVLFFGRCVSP
Description: In fact, even in this sector, one of the most used dyes today is BBG. However, the Applicant has realised that although it can dye proteins, BBG actually has a relatively low affinity with the self-same proteins. […] It should be noticed that, to carry out the tests, the commercial BBG with a purity of 80% was preliminarily purified and the CD spectra were measured in the 800-400 nm region in the presence of increasing quantities of albumin. Finally, in the known way, the value of the association constant was determined using a non-linear regression of the intensity of the dichroic signal expressed in ΔA (AL-AR, where AL and AR respectively indicate the absorbency of the preparation as regards the two circularly polarized light waves used for the circular dichroism study, the left wave and the right wave) depending on the concentration of the egg white albumin, used as a reference. However, on this point what is indicated in the subsequent Affinity Tests section should also be considered. […]
Affinity was determined by means of CD (circular dichroism) spectroscopy. The CD spectra were measured in the 800-400 nm region in the presence of increasing quantities of egg white albumin which, as is known, for analyses of this type is commonly considered to be representative of proteins in general. […]

association constant Ka [2]: approximately 60,000 M^−1
Compound: CCOc1ccc(Nc2ccc(/C(=C3C=C/C(=[N+](/CC)Cc4cccc(S(=O)(=O)[O-])c4)C=C/3C)c3ccc(N(CC)Cc4cccc(S(=O)(=O)O)c4)cc3C)cc2)cc1 [BBG-250, Brilliant Blue G 250]
concentration at which considered not to be cytotoxic [1]: ≤ 0.3 g/I
